Tests used:
[1] = Fluorescence property test of probe with metal ion solution; conditions: Zn^2+ solution; CH3OH-H2O (v:v=1:1); FIG. 3
Description: (§1) The fluorescence property of the fluorescent probe compound according to the present disclosure was measured, including the following steps:
(§2) (1) Formulating a Probe Solution:
(§3) formulating a solution of 2-(7-(2,8-dimethyl quinoline-6-yl)-5,6,7,8-tetrahydro-1,8-naphthyridin-2-yl) phenol with a concentration of 100 μM in methanol, i.e. a probe solution, and stored at room temperature.
(§4) (2) Formulating Metal Ion Solutions: […]
(§5) the metal ions including: Mg^2+, Fe^2+, Cu^+, Cu^2+, Sn^4+, Co^2+, Mn^2+, K^+, Li^+, Ba^2+, Ca^2+, Cd^2+, Ni^2+, Fe^3+, Al^3+ and Zn^2+; and the respectively solutions of them were prepared from the corresponding hydrochloride salts thereof. Taking a certain amount of metal salts, dissolved in 10 mL of distilled water to formulate a 10-2 mol/L metal ion solution, and stored for later use.
(§6) (3) Fluorescence Property Test:
(§7) formulating solution to be tested: taking 0.5 mL of the formulated probe solution and 0.5 mL of the formulated metal ion solution, mixing with 4 mL solution of a CH3OH—H2O (v:v=1:1) to obtain a solution to be tested of the metal ion.
(§8) formulating blank solution: taking 0.5 mL of the formulated probe solution, mixed with solution of 2.5 mL water and 2 mL methanol.
(§9) analyzing the fluorescence intensity of solution to be tested by fluorescence spectrum, and the analysis result was shown in FIG. 3.

[2] = Competitive experiment: Zn^2+ detection in presence of other metal ions; conditions: Zn^2+ solution (10 NM) plus other metal ion of the same concentration; FIG. 3
Description: In order to further verify the specificity of the zinc ion fluorescent probe compound to the zinc ion, a competitive experiment was conducted: adding the Zn^2+ solution (10 NM) into the probe solution formulated in step (1) together with a solution of any other one of the aforesaid metal ions of the same concentration; testing the effects of other competitive ions on the Zn^2+ selectivity of the zinc ion fluorescent probe compound respectively. The test results were shown in FIG. 3 (all test solution was uniformly labeled as “zinc ion fluorescent probe compound+M+Zn”).

[3] = Fluorescence property test of probe with other metal ion solutions; conditions: Mg^2+, Fe^2+, Cu^+, Cu^2+, Sn^4+, Co^2+, Mn^2+, K^+, Li^+, Ba^2+, Ca^2+, Cd^2+, Ni^2+, Fe^3+ or Al^3+; CH3OH-H2O (v:v=1:1); FIG. 3
Description: as §1, §2, §3, §4, §5, §6, §7, §8, §9

[4] = Fluorescence titration with different concentrations of Zn^2+ (detection range and limit); conditions: Zn^2+ concentration 4×10^-6 M; FIG. 4
Description: Different concentrations of Zn^2+ were added into the probe solution formulated in step (1) to test the fluorescence property of the probe solution, so as to determine the detection range and detection limit for Zn^2+ of the fluorescent probe compound.

Cc1ccc2cc(C3CCc4ccc(-c5ccccc5O)nc4N3)cc(C)c2n1 (stereo not shown) [fluorescent probe compound, 2-(7-(2,8-dimethylquinoline-6-yl)-5,6,7,8-tetrahydro-1,8-naphthyridin-2-yl) phenol]
fluorescence intensity change (F/F0) of the solution to be tested [1]: significant fluorescence decay | change of Zn^2+ detection before and after addition of other competitive ions [2]: almost no change | fluorescence intensity change (F/F0) of the solution to be tested [3]: changed slightly | fluorescence intensity of the compound [4]: dramatic decay
